Measurements: the NIST ThermoML archive (doi:10.1021/acs.jced.8b00780)
Numbers after ± are expanded uncertainties.

Conditions: Crystal; DTA

**Q.** Which Normal melting temperature does the source give for C=C1C[C@@]23CC[C@H]4[C@@](C)(CCC[C@@]4(C)C(=O)O[C@@H]4O[C@H](CO)[C@@H](O)[C@H](O)[C@H]4O)[C@@H]2CC[C@]1(O[C@@H]1O[C@H](CO)[C@@H](O)[C@H](O[C@@H]2O[C@H](CO)[C@@H](O)[C@H](O)[C@H]2O)[C@H]1O[C@@H]1O[C@H](CO)[C@@H](O)[C@H](O)[C@H]1O)C3 [rebaudioside A] here?
**A.** The Normal melting temperature was 231.98 ± 1.1 °C.
